Results as given in ChEMBL document CHEMBL3507680, “University of Dundee, Gates Library screen for HepG2 cell viability”.

Experiment: Human HepG2 cell viability assay in 384 well format
Format: toxicity, cell-based
Set-up: dose 125 nL, time 70.5 hour; cytotoxicity at 70.5 h: concentration not given beside the values
Conditions: HepG2 cells, read-out: Inhibition

| SMILES | cytotoxicity at 70.5 h [%] |
| --- | --- |
| CCNC(=O)NCCCn1nc2ccccn2c1=O | -9.28 |
| COCCn1ccc(=O)c(OCC(=O)Nc2ccc(OC)cc2)c1C | -12 |
| CCS(=O)(=O)N1CCN(CCn2cccn2)c2nc(C)ccc2C1 | -2.39 |
| CN(Cc1ccc2nonc2c1)C(=O)CCc1cc2n(n1)CCCNC2 | -6.8 |
| CCc1nccn1C1CCCN(C(=O)COCC(F)(F)F)C1 (centres undefined) | -1.33 |
| c1ccc2[nH]c(C3CCN(Cc4nnc(C5CC5)o4)CC3)cc2c1 | -12.6 |
| O=C(c1ccco1)N1CCC12CCN(c1ncc(F)cn1)CC2 | 0.431 |
| CCc1[nH]ncc1C(=O)N1CCCC(n2nc(C)nc2C)C1 (centres undefined) | 19.7 |
| COCC(=O)Nc1cc(S(=O)(=O)C(F)(F)F)ccc1OC | 2.14 |
| Cc1cccc(CN2CCC3(CCCN(C(=O)NC(C)C)C3)C2=O)n1 (centres undefined) | -5.48 |
| COc1ccc(CNC(=O)CCn2cc(C)cn2)cc1C | 26.7 |
| CCNC(=O)N(C)Cc1ccc(SC)c(OC)c1 | -7.42 |
| Cc1ccc(S(=O)(=O)NC[C@H]2OC[C@@H](NCc3ccccc3)[C@@H]2O)cc1 | -10 |
| COCCN(C)CCN1CC2(CCN(C3CCOC3)CC2)OC1=O (centres undefined) | -0.423 |
| CC(C)c1nnc(NC(=O)NCc2ccnc(N(C)C)c2)s1 | -19.1 |
| Cn1ccnc1CN(Cc1cccnc1)CC1CCCO1 (centres undefined) | -8.2 |
| CC1(C)CN(C(CNS(N)(=O)=O)c2ccc(Cl)cc2)CCO1 (centres undefined) | -3.76 |
| CCC(CNC(=O)c1ccc(F)cc1F)N1CCc2ccccc2C1 (centres undefined) | -7.79 |
| c1cnnc(N2CCCC2CNCc2nc(C3CC3)no2)c1 (centres undefined) | -11.8 |
| CN1CCN([C@@H]2CCN(CC3CCOC3)[C@H]2Cc2cnn(C)c2)CC1 (some centres undefined) | -13 |
| COCCCN1Cc2cccc(NC(=O)c3ccccc3C)c2C1 | 15.2 |
| Fc1cnc(N2CCn3cc(CNc4ccccn4)nc3C2)nc1 | -17.4 |
| Cc1cnc(CC2COCCN(C(=O)c3cncs3)C2)cn1 (centres undefined) | -1.74 |

| SMILES | cytotoxicity at 70.5 h [%] |
| --- | --- |
| O=C(NS(=O)(=O)c1cc(Cl)sc1Cl)c1cccc2c1OCCO2 | 1.61 |
| NCc1n[nH]c(-c2ccc(Br)cc2)n1 | 2.27 |
| Cc1nc(Nc2ccccn2)cc(C2CCCN2C2CCOCC2)n1 (centres undefined) | -10.7 |
| CN(Cc1nnc(-c2ccco2)o1)CC1CCCN1c1cccnn1 (centres undefined) | 5.51 |
| Cc1cnn(CC2CN(c3cnc4ccccc4n3)CCO2)c1 (centres undefined) | 48.4 |
| O=C(C1CCOC1)N1CCC2(CCN(Cc3nccs3)C2)CC1 (centres undefined) | -10.1 |
| O=c1cc(CN2CC[C@@]3(O)CCCC[C@H]3C2)c2cccc3c2n1CCC3 | -11.8 |
| CCc1ccc(CNC2(c3ccc(F)cc3)CCOCC2)o1 | -5.73 |
| C=C1C(C)(C)[C@H]2CC[C@]1(C(=O)N1CCC(Cn3cc(CO)nn3)CC1)C2 | 26.1 |
| CCOC1CCCN(C(=O)c2sccc2-n2cnnn2)C1 (centres undefined) | -2.74 |
| CC(NC(=O)NCc1cccs1)c1ccc2c(c1)CCC(=O)N2 (centres undefined) | -4.6 |
| CN(C)CCN1C[C@@H]2CN(C(=O)c3ccsc3)C[C@@H]2C1=O | -2.41 |
| O=C(O)CCn1nc(C(F)(F)F)c(Cl)c1C1CC1 | -19.2 |
| COCC(=O)N1CC[C@@H]2O[C@@H](COCC3CCOCC3)CC[C@@H]21 | 12.6 |
| COCCNC(=O)C1CN(Cc2csc(C)n2)Cc2ccnn2C1 (centres undefined) | -8.82 |
| CCN1CCN(c2ccc(NC(=O)CC(C)C)c(C)c2)CC1 | -20.9 |
| Cc1nnc([C@]23COC[C@H]2CN(Cc2cnn(C)c2)C3)o1 | -4.29 |
| CC(C)NC(=O)CCN1CCCC1c1cccc2c1OCCO2 (centres undefined) | -8.96 |
| Cc1cccc(C(C)CNC(=O)N2CCOCC3(CCOCC3)C2)c1 (centres undefined) | -4.47 |
| CCCN1CCN(Cc2cccc(OCC(N)=O)c2)[C@H]2CS(=O)(=O)C[C@H]21 | 0.755 |
| CC(=O)NCCNC(=O)c1sc(-c2ccc(Cl)s2)nc1C | 28.8 |
| O=C(CCc1nc2ccccc2[nH]1)NC1CCOC2(CCOCC2)C1 (centres undefined) | 20.1 |
| Cc1cn(CC(=O)Nc2cc(C(C)C)nn2C)cn1 | -10.1 |

| SMILES | cytotoxicity at 70.5 h [%] |
| --- | --- |
| CCC(C)NC(=O)c1ccc(NC(=O)CCc2ccncc2)c(C)c1 (centres undefined) | -3.96 |
| O=C(NCCC(O)c1ccco1)c1ccccc1Br (centres undefined) | -2.47 |
| CN1CCOC(C)(C(=O)Nc2nc(C(C)(C)C)cs2)C1 (centres undefined) | 13.5 |
| Cc1cnc(N2CC[C@H]3[C@H](C[C@@H](CN(C)C)N3C)C2)nc1 | -6.09 |
| CN1C(=O)CCC12CCCN(Cc1nccs1)C2 (centres undefined) | 23.1 |
| Cc1cnc(CNC(=O)NCCOc2ncccc2Cl)s1 | -3.34 |
| Cc1c[nH]c(CN(C)C(=O)CCn2cnc3ccccc32)n1 | -1.23 |
| CCS(=O)(=O)N1CCO[C@H]2[C@H](OCCCn3cccn3)CC[C@@H]21 | -9.45 |
| CCCN1CCCN(CCCOc2cccc(C#N)c2)CC1 | -1.9 |
| C1CN(Cc2noc(C3CC3)n2)CCN(Cc2nnc(C3CC3)o2)C1 | 15.4 |
| CC(=O)NCC1CN(c2ccc3c(Cl)ccnc3c2F)CCO1 (centres undefined) | -7.29 |
| CCOc1ccc(NC(=O)NC2CCc3nc(C)nn3C2)cc1Cl (centres undefined) | -2.45 |
| CS(=O)(=O)NCc1noc2c1CN(C(=O)C1CCC1)CC2 | -8.52 |
| Cc1cc(C(=O)N2CC(O)CO2)c2ccc(C)c(C)c2n1 (centres undefined) | -6.82 |
| Cc1cc(-c2cnn(CCNC(=O)Cc3ccccn3)c2C2CC2)on1 | -3.25 |
| c1csc(N2CCCN(Cc3nc(C4CC4)no3)CC2)n1 | -15.8 |
| Cc1nsc2ncc(C(=O)N3CCCC3c3cnn(C)c3)cc12 (centres undefined) | -0.553 |
| CCN1CC(COC(=O)c2cccc(Br)c2)CC1=O (centres undefined) | -7.36 |
| Cn1cc(C(=O)N2CCN(Cc3ccccn3)CC2)ccc1=O | 19.1 |
| COCCc1ncc(CNC2(c3ccc(Cl)cc3)CC2)cn1 | 0.0528 |
| C[C@]1(O)CN(Cc2ncc[nH]2)CC[C@@H]1Oc1cccc(F)c1 | -1.65 |
| Cc1csc(C(C#N)C(=O)Nc2ccccc2)n1 (centres undefined) | -0.341 |
| Cn1c(=O)c2c(n3ncnc13)NC(=O)CC2c1ccc(F)cc1 (centres undefined) | -11.1 |

| SMILES | cytotoxicity at 70.5 h [%] |
| --- | --- |
| N#Cc1c2n(c3c(=O)[nH]cnc13)CCCCC2 | 2.85 |
| CC(C)(C(=O)N1CCC(C(N)=O)C1)c1ccccc1F (centres undefined) | -2.99 |
| COCc1ncc(CN2CC(Oc3c(C)cccc3C)C2)cn1 | -0.994 |
| Cc1cc(CN(Cc2ccccc2)C2CC2)on1 | -0.663 |
| O=C1COC2(CCN(c3ncccn3)CC2)CN1c1ccsc1 | -4.75 |
| Cn1cc(C2CCCN2C(=O)CCn2c(=O)oc3ccccc32)cn1 (centres undefined) | -2.42 |
| O=C1NCCN1CCNCC1(O)CCCN(CCC2CCCCC2)C1=O (centres undefined) | -4.14 |
| CCN(CC1CCOC1)C(=O)c1ccn(-c2cc(C)ccc2OC)n1 (centres undefined) | -2.72 |
| CCc1nc(C2CCCN2C(=O)c2ncoc2CC)no1 (centres undefined) | -5.48 |
| CCC(=O)N1CCC(c2nnc(Cn3cccn3)n2C2CC2)CC1 | -6.95 |
| CCCS(=O)(=O)N1CCC2(CC1)CCn1c(-c3cnn(C)c3)cnc12 | -11.3 |
| Cc1nccc(-c2cccc(NCC(=O)N3CCNC3=O)c2)n1 | -0.295 |
| O=C(CC1=CCCCC1)Nc1ncn(CC(=O)N2CCCCCC2)n1 | -6.09 |
| Nc1nc2c(c(NCC(c3cccnc3)N3CCOCC3)n1)CCCC2 (centres undefined) | -12.1 |
| CC(C)Cc1nc(OCC(=O)O)c(C#N)c2c1CCCC2 | -7.68 |
| CSc1ccccc1C(=O)NCc1cc2n(n1)CCCN(CC(C)C)C2 | 22.5 |
| Cc1cc(=O)[nH]c(=O)n1-c1ccccc1Br | -2.81 |
| O=C(C1CCOCC1)N1C[C@@H]2[C@@H](C1)OCC(=O)N2CC1CC1 | -6.04 |
| CNC(=O)[C@@H](c1ccccc1OC)N1CCC[C@H]1C(=O)NC1CC1 | -1.71 |
| CCOc1ccc2ccccc2c1CNCC1CCS(=O)(=O)C1 (centres undefined) | -3.67 |
| Cc1ccc(Cl)c(C)c1NC(=O)N1CCCN(Cc2ccccn2)CC1 | 2.01 |
| CCN(Cc1nc(COC)no1)Cc1cccnc1NC | -21.9 |
| COC(=O)C(CO)NC(=O)c1cn(Cc2ccccc2F)nn1 (centres undefined) | -8.74 |

| SMILES | cytotoxicity at 70.5 h [%] |
| --- | --- |
| NC(=O)N1CC[C@@H]2O[C@H](COCC(=O)N3CCCC3)CC[C@@H]21 | -0.223 |
| COCCN(CC(C)C)c1cc(C)ncn1 | 6.75 |
| CN(Cc1ccc(C#N)cc1)C(=O)c1ccn(C)c(=O)c1 | -9.77 |
| COCC(=O)N1CCC2(CC1)C(=O)N(Cc1cccnc1)CCN2C | 28.3 |
| Cc1cc(C)cc(CN2C[C@@H]3OCCN(CC(=O)N(C)C)[C@@H]3C2)c1 | -0.77 |
| COc1cccc(CN2CCCCCC2c2cccc(C)c2)c1O (centres undefined) | 6.46 |
| Cc1noc(C)c1-c1nc(C2CCCN(C(=O)CCN)C2)ccc1CO (centres undefined) | -1.78 |
| Cc1oc(-c2ccsc2)nc1CNCCn1cccn1 | -5.13 |
| CC(C)(C)n1cc(CNC2CCN(C(=O)c3ccco3)CC2)cn1 | 1.29 |
| O=C(NCCCn1ccnc1)N1CCCC1c1ccncc1 (centres undefined) | -1.54 |
| Cc1ccc(N2CCCC(NCc3cc(C)on3)C2)nn1 (centres undefined) | -3.47 |
| CN(Cc1cc[nH]n1)C(C(=O)O)c1ccc(Cl)cc1 (centres undefined) | -4.85 |
| CC(C)CN1CC2(CCN(C(=O)C3CSC(C)(C)C(=O)N3)CC2)CC1=O (centres undefined) | -1.86 |
| CCO[C@H]1CO[C@@]2(CCCN(C(=O)c3ccc(OC)c(F)c3)C2)C1 | 2.45 |
| NS(=O)(=O)c1cc(C(=O)N2CCCCC2)cs1 | -4.34 |
| CCN(CC1CCOC1)C(=O)NCc1nnc2n1CCC2 (centres undefined) | -5.15 |
| Cc1ccc2nc(CNCCCN3CCCC3=O)cc(O)c2c1 | 14.6 |
| CNC(=O)[C@@H]1[C@@H](c2ccccc2)CN2CCN(Cc3cccs3)C[C@H]12 | 0.531 |
| Cc1csc(C2CCCN(C(=O)c3cccc4c3OCO4)C2)n1 (centres undefined) | -4.7 |
| c1cnc(N2CCO[C@@H]3CN(Cc4ccoc4)C[C@@H]3C2)nc1 | 4.32 |
| Cc1cc(CN2Cc3ccccc3CC2c2nnc(C)o2)on1 (centres undefined) | -6.94 |
| Cc1ncsc1C(=O)NC1CCN(CCC(N)=O)CC1 | -21.4 |
